The experiment addresses SYK (Homo sapiens, UniProt P43405). Nature of the experiment: SYK inhibition assay: SYK-mediated phosphorylation of FAM-labeled substrate (Caliper microfluidic). The class given is biochemical. The conditions noted are these: read-out: SYK Inhibition (pIC50) (converted).
As for `Cn1cc(-c2nc(N[C@@H]3CCCC[C@@H]3N)c(F)c3c2C(=O)NC3(C)C)cn1` [Example 120, 6-((1R,2S)-2-Aminocyclohexylamino)-7-fluoro-1,1-dimethyl-4-(1-methyl-1H-pyrazol-4-yl)-1H-pyrrolo[3,4-c]pyridin-3(2H)-one], the IC50 was 251 nM.

Take `Cn1ccc(-c2nc(N[C@@H]3CCCC[C@@H]3N)c(F)c3c2C(=O)NC3)n1` [Example 121]: the IC50 is 3980 nM. As to `Cc1ncc(-c2nc(N[C@@H]3CCCC[C@@H]3N)c(F)c3c2C(=O)NC3)s1` [Example 122, 6-((1R,2S)-2-Aminocyclohexylamino)-7-fluoro-4-(2-methylthiazol-5-yl)-1H-pyrrolo[3,4-c]pyridin-3(2H)-one], the IC50 is 631 nM.

For the compound `Cc1ccc(-c2nc(N[C@@H]3CCOC[C@@H]3N)c(F)c3c2C(=O)NC3)s1` [Example 123, 6-((3R,4R)-3-Aminotetrahydro-2H-pyran-4-ylamino)-7-fluoro-4-(5-methylthiophen-2-yl)-1H-pyrrolo[3,4-c]pyridin-3(2H)-one], the IC50 is 7.94 nM. The result for `CC1NC(=O)c2c(-c3cnn(C)c3)nc(N[C@@H]3CCCC[C@@H]3N)c(F)c21` (stereo partly drawn) [Example 124, 6-((1R,2S)-2-Aminocyclohexylamino)-7-fluoro-1-methyl-4-(1-methyl-1H-pyrazol-4-yl)-1H-pyrrolo[3,4-c]pyridin-3(2H)-one] reads 25.1 nM.

`N[C@H]1COCC[C@H]1Nc1nc(-c2cnn(C(F)F)c2)c2c(c1F)CNC2=O` [Example 125, 6-((3R,4R)-3-Aminotetrahydro-2H-pyran-4-ylamino)-4-(1-(difluoromethyl)-1H-pyrazol-4-yl)-7-fluoro-1H-pyrrolo[3,4-c]pyridin-3(2H)-one]: the IC50 was 10 nM. Take `CC(C)C[C@@H](Nc1nc(-c2cccs2)c2c(c1F)CNC2=O)C(N)=O` [Example 126, (R)-2-(7-Fluoro-3-oxo-4-(thiophen-2-yl)-2,3-dihydro-1H-pyrrolo[3,4-c]pyridin-6-ylamino)-4-methylpentanamide]: the IC50 was 7.94 nM. Turning to `N[C@H]1COCC[C@H]1Nc1nc(-c2cccs2)c2c(c1F)CNC2=O` [Example 127, 6-((3R,4R)-3-Aminotetrahydro-2H-pyran-4-ylamino)-7-fluoro-4-(thiophen-2-yl)-1H-pyrrolo[3,4-c]pyridin-3(2H)-one], the IC50 was 6.31 nM.

Consider `N[C@H]1COCC[C@H]1Nc1nc(-c2cncs2)c2c(c1F)CNC2=O` [Example 128, 6-((3R,4R)-3-Aminotetrahydro-2H-pyran-4-ylamino)-7-fluoro-4-(thiazol-5-yl)-1H-pyrrolo[3,4-c]pyridin-3(2H)-one], for which the IC50 is 20 nM. For `N[C@H]1CCCC[C@H]1Nc1nc(-c2cccs2)c2c(c1F)CNC2=O` [Example 129, 6-((1R,2S)-2-Aminocyclohexylamino)-7-fluoro-4-(thiophen-2-yl)-1H-pyrrolo[3,4-c]pyridin-3(2H)-one] the value was 3.98 nM; for `N[C@H]1COCC[C@H]1Nc1nc(-n2cnc(C(F)(F)F)c2)c2c(c1F)CNC2=O` [Example 130, 6-((3R,4R)-3-Aminotetrahydro-2H-pyran-4-ylamino)-7-fluoro-4-(4-(trifluoromethyl)-1H-imidazol-1-yl)-1H-pyrrolo[3,4-c]pyridin-3(2H)-one], 10000 nM; for `Cc1cn(-c2nc(N[C@@H]3CCCC[C@@H]3N)c(F)c3c2C(=O)NC3)cn1` [Example 131, 6-((1R,2S)-2-Aminocyclohexylamino)-7-fluoro-4-(4-methyl-1H-imidazol-1-yl)-1H-pyrrolo[3,4-c]pyridin-3(2H)-one], > 20000 nM. For `Cc1cc(-c2nc(N[C@@H]3CCOC[C@@H]3N)c(F)c3c2C(=O)NC3)sn1` [Example 132, 6-((3R,4R)-3-Aminotetrahydro-2H-pyran-4-ylamino)-7-fluoro-4-(3-methylisothiazol-5-yl)-1H-pyrrolo[3,4-c]pyridin-3(2H)-one] the value was 3.98 nM; for `Cc1ncc(-c2nc(N[C@@H]3CCOC[C@@H]3N)c(F)c3c2C(=O)NC3)s1` [Example 133, 6-((3R,4R)-3-Aminotetrahydro-2H-pyran-4-ylamino)-7-fluoro-4-(2-methylthiazol-5-yl)-1H-pyrrolo[3,4-c]pyridin-3(2H)-one], 25.1 nM; for `N[C@H]1COCC[C@H]1Nc1nc(-c2cnn(C3CC3)c2)c2c(c1F)CNC2=O` [Example 136, 6-((3R,4R)-3-Aminotetrahydro-2H-pyran-4-ylamino)-4-(1-cyclopropyl-1H-pyrazol-4-yl)-7-fluoro-1H-pyrrolo[3,4-c]pyridin-3(2H)-one], 31.6 nM.

Values taken from patent publication US9181255B2, “Fused heteroaromatic pyrrolidinones as SYK inhibitors” (Takeda Pharmaceutical Company Limited, priority 2009, dated 2015).
